US4960770A, “2-alkyl thieno(triazolo)diazepine compounds and pharmaceutical uses thereof” (Yoshitomi Pharmaceutical Industries, Ltd., priority 1987, dated 1990)
pIC50: −log10 of the molar value. Values after ≈ are worked out from the molar mass of the structure shown. Read-outs that look alike come from different tables or passages of the source.

Legend:
[1] = test system: PAF-induced platelet aggregation; test: Inhibitory effect on platelet aggregation in rabbits (in vitro test); assay type: cell-based; settings: Oryctolagus cuniculus, rabbit PRP, PAF 1.8×10^-7 M, 37° C., read-out: Inhibition of PAF-induced platelet aggregation, IC50
Procedure: (§1) Blood samples to which was added 0.1 volume of 3.8% sodium citrate were collected from rabbits. Platelet rich plasma (PRP) was prepared by centrifuging the blood sample at 200 x g for 10 minutes, and platelet poor plasma (PPP) was prepared by centrifuging the remaining blood sample at 1000 x g for 10 minutes.
(§2) Aggregation ability was measured with a turbidimetric device (6-channel NKK Hematracer 1, model PAT-6A) according to the method of G.V.R. Born described in J. Physiology, vol. 168, p. 178 (1963). The aggregometer was adjusted in sensitivity to give light transmission values of 0 and 100% for PRP and PPP, respectively. With stirring at 1000 rpm, 0.3 μl of test compound solution or vehicle was added to 0.3 ml of PRP. After the mixture was kept at 37° C. for 2 minutes, to the mixture was added 3 μl of synthesized platelet activating factor at the final concentration of 1.8×10^-7 M and the light transmission was recorded for 5 minutes.
(§3) The inhibition percentage of test compounds on platelet aggregation were calculated from the following formula by measuring the maximal light transmission in the presence and absence of the test compounds. [formula]

[2] = test system: PAF-induced platelet aggregation; test: Inhibitory effect on platelet aggregation in rabbits (ex vivo test); settings: 10 mg/kg p.o.; for inhibition at 10 mg/kg: Oryctolagus cuniculus, Platelet, po, read-out: % of inhibition after administration
Procedure: as §1, §2, §3
Test compound was orally administered to a group of three rabbits instead of adding it to PRP as in vitro test of Experiment 2, and then the citrated blood samples (1 volume of 3.8% sodium citrate +9 volumes of blood) were collected with the passage of time. Then, the blood samples were employed to determine the inhibitory effect according to Experiment 2.

PAF-induced lethal shock = test: Effect of PAF-induced lethal shock in mice; assay type: in vivo, male ICR mice; settings: 1 hour before PAF 80 μg/kg i.v., 24 hours
Procedure: The experiment was carried out according to the method of Young et al. described in Prostaglandins, vol. 30, p. […] Groups of 9 to 15 male ICR mice (Charles River) weighing 25-30 g were used. 80 μg/kg of PAF (Serdary Research Labo.) solution was intravenously administered in a lateral tail vein 1 hour after the oral administration of test compound (0.1 ml/10 g). […] Results were given as number of survivors/number of employed animals and survival rates (%) in Table 4.

[3] = biological target: calcium/calmodulin dependent phosphodiesterase; test: Effect on calcium/calmodulin dependent phosphodiesterase; assay type: biochemical; settings: [3H]-cAMP, pH 8.0, 37° C., 20 minutes; read-out: Inhibitory action on calcium/calmodulin dependent phosphodiesterase IC50
Procedure: The experiment was carried out according to the method of Thompson et al. described in Advances in Cyclic Nucleotide Research, Vol. 10, p. 69 (1979). Briefly, the solution of which final volume was 200μl was prepared by mixing 40 μl of 200 mM Tris-HCl buffer solution (pH 8.0), containing 25 mM magnesium chloride and 0.5 mM ethyleneglycol-bis(β-aminoethylether)-N,N '-tetra acetic acid (EGTA), 20 μof 10μM [^3 H]-cAMP (250 nCi), test compound and a solution of calcium/calmodulin dependent phosphodiesterase (PDE) enzyme. The test compound was dissolved in dimethyl sulfoxide to give 1% of final concentration. The incubation was performed at 37° C. for 20 minutes and then stopped by heating for 1 minutes in a boiling water bath. The resulting 5'-AMP was converted into adenosine by adding 50 μl of snake venom (1 mg/ml) and incubating at 30° C. for 10 minutes. Then, to the solution was added 500 μl of AGI-X8 (methanol:resin=3:2) and the mixture was allowed to stand under ice-cooling for 15 minutes with occasional shaking to adsorb the unreacted cAMP. After centrifuging, the radioactivity of the supernatant was measured by a liquid scintillation counter.
The action of the test compound on PDE activity was studied by calculating the inhibition percentage in the absence of calcium/calmodulin from the following formula, and represented as IC50 value. [formula] a: PDE activity in the presence of test compound and in the absence of calmodulin
b: PDE activity in the absence of test compound and calmoduline

[4] = test system: coronary artery blood flow; test: Effect on coronary flow (coronary artery blood flow in anesthetized dogs); assay type: in vivo, mongrel dogs; settings: relative to flow increase at 3 μg nifedipine
Procedure: Adult mongrel dogs were anesthetized with sodium pentobarbital (30 mg/kg, i.v.). According to the method of Yago et al described in Folia Pharmacologica Japonica, vol. 57, p. 380 (1961), the left coronary artery was perfused and its blood flow was measured. Test compound was injected into the coronary artery at a volume of 10-30 μl. To determine the effect of the test compound on coronary artery blood flow, an increase percentage of blood flow at each dosage was calculated based on the increase of the blood flow at a dosage of 3 μg of nifedipine.

vertebral blood flow = test: Effect of vertebral blood flow (anesthetized dogs); assay type: in vivo, mongrel dogs; settings: Canis lupus familiaris; dose required to obtain 100% of the flow increase by intraartery 3 μg/kg nifedipine
Procedure: Adult mongrel dogs were anesthetized with sodium pentobarbital (30 mg/kg. i.v.) and the blood flow of the left vertebral artery was measured.

[5] = biological target: T1, calmodulin (bovine encephalon) (Bos taurus, UniProt P62157); test: Calmodulin inhibitory action (NPN fluorescence probe method); assay type: biochemical
T1 construct: calmodulin (bovine encephalon); from tissue; host or cells: bovine encephalon (brain)
Procedure: Calmodulin inhibitory action was measured according to the modified method of Epstein et al. described in Biochemical and Biophysical Research Communications, Vol. 105, p. 1142 (1982). Briefly, to 25 mM Tris-HCl buffer solution (pH 7.0) were added as a final concentration 1 mM calcium chloride, 5 μM N-phenyl-1-naphthylamine (NPN), 1000 units of calmodulin (bovine encephalon) and each of test compound to give 3 ml of final solution volume. The solution was allowed to stand at room temperature for 1 hour and the fluorescence intensity was measured by a fluorescene photometer (ex. 350 nm, em. 440 nm). A blank was prepared by adding water instead of calmodulin. Each of test compound was dissolved in dimethyl sulfoxide or 2.5% dimethyl sulfoxide solution and the final concentration of dimethyl sulfoxide was adjusted to 0.25%.

[6] = dosage 30 μg into coronary artery
[7] = dosage 100 μg into coronary artery
[8] = dosage 300 μg into coronary artery

Question: How did the IC50 [1] turn out when CCc1cc2c(s1)-n1c(C)nnc1CN=C2c1ccccc1Cl [Etizolam, 6-(o-chlorophenyl)-8-ethyl-1-methyl-4H-s-triazolo[3,4-c]thieno[2,3-e][1,4]diazepine, reference compound] was run?
Answer: 1.3 µg/mL (≈ 3.79 µM)

Question: What about the “% of inhibition at each time after administration (in words)” value ([2]; one entry for 1, 3 and 6 hours) of the same molecule?
Answer: no effect

Question: For CCCCCCc1cc2c(s1)-n1c(C)nnc1CN=C2c1ccccc1Cl [Example 54, 4-(2-chlorophenyl)-2-hexyl-9-methyl-6H-thieno[3,2-f][1,2,4]triazolo[4,3-a][1,4]diazepine], which IC50 [1] is on record?
Answer: 0.03 to 0.1 µg/mL (≈ 0.0752 to 0.251 µM)

Question: And the inhibition at 10 mg/kg ([2]; 1 hour)?
Answer: 100%

Question: And the inhibition at 10 mg/kg ([2]; 3 hours)?
Answer: 100%

Question: What about the inhibition at 10 mg/kg ([2]; 6 hours) of the same molecule?
Answer: 85%

Question: And the “Number of Survivors/Number of Animals” value (PAF-induced lethal shock; 0.3 mg/kg p.o.)?
Answer: 3/10

Question: What about the Survival rate (PAF-induced lethal shock; 0.3 mg/kg p.o.) of the same molecule?
Answer: 30%

Question: And the “Number of Survivors/Number of Animals” value (PAF-induced lethal shock; 3 mg/kg p.o.)?
Answer: 10/10

Question: And the Survival rate (PAF-induced lethal shock; 3 mg/kg p.o.)?
Answer: 100%

Question: How did the IC50 [1] turn out when CCCCCCc1cc2c(s1)-n1c(C)nnc1CN=C2c1ccccc1OC [Example 55, 2-hexyl-4-(2-methoxyphenyl)-9-methyl-6H-thieno[3,2-f][1,2,4]triazolo[4,3-a][1,4]diazepine] was run?
Answer: 0.03 to 0.1 µg/mL (≈ 0.076 to 0.253 µM)

Question: How did the IC50 [1] turn out when CCCCCCCCc1cc2c(s1)-n1c(C)nnc1CN=C2c1ccccc1Cl [Example 57, 4-(2-chlorophenyl)-2-octyl-9-methyl-6H-thieno[3,2-f][1,2,4]triazolo[4,3-a][1,4]diazepine] was run?
Answer: 0.01 to 0.1 µg/mL (≈ 0.0234 to 0.234 µM)

Question: What about the pIC50 [3] of the same molecule?
Answer: 4.96

Question: Which results are given for CCCCCCc1cc2c(s1)-n1c(C)nnc1CN=C2c1ccccc1C [Example 58, 2-hexyl-4-(2-methylphenyl)-9-methyl-6H-thieno[3,2-f][1,2,4]triazolo[4,3-a][1,4]diazepine]?
Answer: Effect on coronary blood flow [4, 6]: 63%; Effect on coronary blood flow [4, 7]: 107%; Effect on coronary blood flow [4, 8]: 136%

Question: Which “Effect on coronary blood flow” value [4, 6] does the source give for CCCCCCc1cc2c(s1)-n1c(C)nnc1CN=C2c1ccc(C)cc1 [Example 61, 2-hexyl-4-(4-methylphenyl)-9-methyl-6H-thieno[3,2-f][1,2,4]triazolo[4,3-a][1,4]diazepine] here?
Answer: 55%

Question: And the “Effect on coronary blood flow” value [4, 7]?
Answer: 69%

Question: What about the “Effect on coronary blood flow” value [4, 8] of the same molecule?
Answer: 103%

Question: What about the “Number of Survivors/Number of Animals” value (PAF-induced lethal shock; 1 mg/kg p.o.) of the same molecule?
Answer: 6/8

Question: What about the Survival rate (PAF-induced lethal shock; 1 mg/kg p.o.) of the same molecule?
Answer: 75%

Question: And the “Number of Survivors/Number of Animals” value (PAF-induced lethal shock; 3 mg/kg p.o.)?
Answer: 8/8

Question: What about the Survival rate (PAF-induced lethal shock; 3 mg/kg p.o.) of the same molecule?
Answer: 100%

Question: CCCCCCc1cc2c(s1)-n1c(C)nnc1CN=C2c1cccc(C)c1 [Example 62, 2-hexyl-4-(3-methylphenyl)-9-methyl-6H-thieno[3,2-f][1,2,4]triazolo[4,3-a][1,4]diazepine] was tested. Which “Number of Survivors/Number of Animals” value (PAF-induced lethal shock; 3 mg/kg p.o.) did it give?
Answer: 6/8

Question: And the Survival rate (PAF-induced lethal shock; 3 mg/kg p.o.)?
Answer: 75%

Question: What about the pIC50 [3] of the same molecule?
Answer: 4.96

Question: With CCCCCCc1cc2c(s1)-n1c(C)nnc1CN=C2c1cc(C)ccc1C [Example 65, 2-hexyl-4-(2,5-dimethylphenyl)-9-methyl-6H-thieno[3,2-f][1,2,4]triazolo[4,3-a][1,4]diazepine] as the molecule, how does the ED100 (vertebral blood flow) read?
Answer: 0.099 mg/kg

Question: What about the pIC50 [3] of the same molecule?
Answer: 4.70

Question: Which results are given for CCCCCCc1cc2c(s1)-n1c(C)nnc1CN=C2c1cc(OC)c(OC)c(OC)c1 [Example 67, 2-hexyl-4-(3,4,5-trimethoxyphenyl)-9-methyl-6H-thieno[3,2-f][1,2,4]triazolo[4,3-a][1,4]diazepine]?
Answer: Effect on coronary blood flow [4, 6]: 43%; Effect on coronary blood flow [4, 7]: 86%; Effect on coronary blood flow [4, 8]: 114%; ED100 (vertebral blood flow): 0.078 mg/kg; pIC50 [3]: 5.15

Question: What does the source list for CCCCCCc1cc2c(s1)-n1c(C)nnc1C(C)N=C2c1ccccc1C (stereo not shown) [Example 68, 2-hexyl-4-(2-methylphenyl)-6,9-dimethyl 6H-thieno[3,2-f][1,2,4]triazolo[4,3-a][1,4]diazepine]?
Answer: Effect on coronary blood flow [4, 6]: 33%; Effect on coronary blood flow [4, 7]: 63%; Effect on coronary blood flow [4, 8]: 100%; Number of Survivors/Number of Animals (PAF-induced lethal shock; 0.1 mg/kg p.o.): 5/6; Survival rate (PAF-induced lethal shock; 0.1 mg/kg p.o.): 83.3%; Number of Survivors/Number of Animals (PAF-induced lethal shock; 0.3 mg/kg p.o.): 6/7; Survival rate (PAF-induced lethal shock; 0.3 mg/kg p.o.): 85.7%; Number of Survivors/Number of Animals (PAF-induced lethal shock; 1 mg/kg p.o.): 6/7; Survival rate (PAF-induced lethal shock; 1 mg/kg p.o.): 85.7%; pIC50 [5]: 5.96

Question: With CCCCCCCCCCc1cc2c(s1)-n1c(C)nnc1CN=C2c1ccccc1OC [Example 69, 2-decyl-4-(2-methoxyphenyl)-9-methyl-6H-thieno[3,2-f][1,2,4]triazolo[4,3-a][1,4]diazepine] as the molecule, how does the IC50 [1] read?
Answer: 0.3 to 1 µg/mL (≈ 0.666 to 2.22 µM)

Question: Which IC50 [1] does the source give for CCCCCCCCCCc1cc2c(s1)-n1c(C)nnc1CN=C2c1ccccc1Cl [Example 72, 4-(2-chlorophenyl)-2-decyl-9-methyl 6H-thieno[3,2-f][1,2,4]triazolo[4,3-a][1,4]-diazepine] here?
Answer: 0.03 to 0.1 µg/mL (≈ 0.0659 to 0.22 µM)

Question: How did the IC50 [1] turn out when CCCCCCCCCCCCc1cc2c(s1)-n1c(C)nnc1CN=C2c1ccccc1Cl [Example 73, 4-(2-chlorophenyl)-2-dodecyl-9-methyl-6H-thieno[3,2-f][1,2,4]triazolo[4,3-a][1,4]-diazepine] was run?
Answer: 0.3 to 1 µg/mL (≈ 0.621 to 2.07 µM)

Question: How did the “Effect on coronary blood flow” value [4, 6] turn out when CCCCCCc1cc2c(s1)-n1c(C)nnc1C(C)N=C2c1ccccc1Cl (stereo not shown) [Example 74, 4-(2-chlorophenyl)-2-hexyl-6,9-dimethyl-6H-thieno[3,2-f][1,2,4]triazolo[4,3-a][1,4]diazepine] was run?
Answer: 16%

Question: And the “Effect on coronary blood flow” value [4, 7]?
Answer: 57%

Question: What about the “Effect on coronary blood flow” value [4, 8] of the same molecule?
Answer: 86%

Question: And the “Number of Survivors/Number of Animals” value (PAF-induced lethal shock; 0.1 mg/kg p.o.)?
Answer: 5/6

Question: And the Survival rate (PAF-induced lethal shock; 0.1 mg/kg p.o.)?
Answer: 83.3%

Question: And the “Number of Survivors/Number of Animals” value (PAF-induced lethal shock; 1 mg/kg p.o.)?
Answer: 7/7

Question: And the Survival rate (PAF-induced lethal shock; 1 mg/kg p.o.)?
Answer: 100%

Question: What about the pIC50 [5] of the same molecule?
Answer: 5.92

Question: With CCOC(=O)C1=C[C@]2(CC)CCCN3CCc4c(n1c1ccccc41)[C@@H]32 [vinpocetine, reference compound] as the molecule, how does the pIC50 [3] read?
Answer: 4.06
